Values after ≈ are worked out from the molar mass of the structure shown.
Tests used:
[1] = system: Helicobacter pylori; assay: Antibacterial activity against Helicobacter pylori CIP 103995 incubated for 72 hrs under microaerophilic conditions by broth microdilution method; assay type: functional; settings: CIP 103995, 72 h
[2] = system: Staphylococcus aureus; assay: Antibacterial activity against Staphylococcus aureus ATCC 25923 incubated for 24 hrs by broth microdilution method; assay type: functional; settings: ATCC 25923, 24 h
[3] = system: Escherichia coli; assay: Antibacterial activity against Escherichia coli ATCC 25922 incubated for 24 hrs by broth microdilution method; assay type: functional; settings: ATCC 25922, 24 h
[4] = system: Pseudomonas aeruginosa; assay: Antibacterial activity against Pseudomonas aeruginosa ATCC 27853 incubated for 24 hrs by broth microdilution method; assay type: functional; settings: ATCC 27853, 24 h
[5] = system: Plasmodium falciparum; assay: Antiplasmodial activity against chloroquine-resistant Plasmodium falciparum FcB1 infected in RBC (unknown origin) incubated for 48 hrs by SYBR green dye based fluorescence analysis; assay type: functional, organism-based; settings: FcB1, 48 h
[6] = system: Leishmania infantum; assay: Antileishmanial activity against Leishmania infantum MHOM/MA/67/ITMAP-263 axenic amastigotes assessed as inhibition of parasitic metabolic activity incubated for 48 hrs by steady Glow reagent based luminescence assay; assay type: functional, organism-based; settings: MHOM/MA/67/ITMAP-263, 48 h
[7] = Cytotoxicity against mouse RAW264.7 cells assessed as reduction in cell viability incubated for 48 hrs by MTT assay; assay type: cell-based

For `C=C(C(C)C)[C@H](O)C[C@@H](C)[C@H]1CC[C@@]2(C)[C@@H]3CC[C@H]4[C@H](C)[C@@H](O[C@@H]5OC[C@@H](O)[C@H](O)[C@H]5O)CC[C@]4(O)CC3=CC[C@]12C`, which MIC [1] is on record?
The MIC was 15.6 µg/mL (≈ 26.4 µM).

And the MIC [2]?
The MIC was 62.5 µg/mL (≈ 106 µM).

What about the MIC [3] of the same compound?
The MIC was over 125 µg/mL.

What about the MIC [4] of the same compound?
Its MIC is over 125 µg/mL.

What about the IC50 [5] of the same compound?
The IC50 was over 150 µM.

What about the IC50 [6] of the same compound?
Its IC50 is 5 µM.

What about the CC50 at 48 h [7] of the same compound?
Its CC50 at 48 h is 24.2 µM.

For `C/C=C(\C(C)C)[C@H](O)C[C@@H](C)[C@H]1CC[C@@]2(C)[C@@H]3CC[C@H]4[C@H](C)[C@@H](O[C@@H]5O[C@@H](C)[C@H](O)[C@@H](O)[C@H]5O)CC[C@]4(O)CC3=CC[C@]12C`, which MIC [1] is on record?
Its MIC is 31.3 µg/mL (≈ 50.6 µM).

What about the MIC [2] of the same compound?
Its MIC is over 125 µg/mL.

And the MIC [3]?
The MIC was over 125 µg/mL.

What about the MIC [4] of the same compound?
The MIC was over 125 µg/mL.

And the IC50 [5]?
Its IC50 is 61.3 µM.

And the IC50 [6]?
The IC50 was 5.2 µM.

What about the CC50 at 48 h [7] of the same compound?
Its CC50 at 48 h is 21.9 µM.

For `C=C(C(C)C)[C@H](O)C[C@@H](C)[C@H]1CC[C@@]2(C)[C@@H]3CC[C@H]4[C@H](C)[C@@H](O[C@@H]5OC[C@H](O)[C@H](O)[C@H]5O)CC[C@]4(O)CC3=CC[C@]12C`, which MIC [1] is on record?
The MIC was 15.6 µg/mL (≈ 26.4 µM).

And the MIC [2]?
Its MIC is 31.3 µg/mL (≈ 53 µM).

And the MIC [3]?
The MIC was over 125 µg/mL.

And the MIC [4]?
Its MIC is over 125 µg/mL.

What about the IC50 [5] of the same compound?
Its IC50 is 52.4 µM.

And the IC50 [6]?
The IC50 was 7.7 µM.

What about the CC50 at 48 h [7] of the same compound?
The CC50 at 48 h was 26.6 µM.

Which MIC [1] does the source give for `C/C=C(\C(C)C)[C@H](O)C[C@@H](C)[C@H]1CC[C@@]2(C)[C@@H]3CC[C@H]4[C@H](C)[C@@H](O[C@@H]5OC[C@H](O)[C@H](O)[C@H]5O)CC[C@]4(O)CC3=CC[C@]12C` here?
The MIC was 15.6 µg/mL (≈ 25.8 µM).

What about the MIC [2] of the same compound?
Its MIC is 31.3 µg/mL (≈ 51.7 µM).

What about the MIC [3] of the same compound?
The MIC was over 125 µg/mL.

What about the MIC [4] of the same compound?
Its MIC is over 125 µg/mL.

What about the IC50 [5] of the same compound?
Its IC50 is 53.7 µM.

What about the IC50 [6] of the same compound?
Its IC50 is 6.3 µM.

What about the CC50 at 48 h [7] of the same compound?
Its CC50 at 48 h is 19.6 µM.

For `C=C(C(C)C)[C@H](O)C[C@@H](C)[C@H]1CC[C@@]2(C)[C@@H]3CC[C@H]4[C@H](C)[C@@H](O[C@@H]5O[C@@H](C)[C@H](O)[C@@H](O)[C@H]5O)CC[C@]4(O)CC3=CC[C@]12C`, which MIC [1] is on record?
Its MIC is 31.3 µg/mL (≈ 51.7 µM).

What about the MIC [2] of the same compound?
The MIC was over 125 µg/mL.

And the MIC [3]?
The MIC was over 125 µg/mL.

What about the MIC [4] of the same compound?
The MIC was over 125 µg/mL.

What about the IC50 [5] of the same compound?
Its IC50 is 55 µM.

And the IC50 [6]?
The IC50 was 6.7 µM.

And the CC50 at 48 h [7]?
The CC50 at 48 h was 35.1 µM.

Which results are given for `C/C=C(\C(C)C)[C@H](O)C[C@@H](C)[C@H]1CC[C@@]2(C)[C@@H]3CC[C@H]4[C@H](C)[C@@H](O[C@@H]5OC[C@@H](O)[C@H](O)[C@H]5O)CC[C@]4(O)CC3=CC[C@]12C`?
MIC [1]: 15.6 µg/mL (≈ 25.8 µM); MIC [2]: > 125 µg/mL; MIC [3]: > 125 µg/mL; MIC [4]: > 125 µg/mL; IC50 [5]: 46.9 µM; IC50 [6]: 5.2 µM; CC50 at 48 h [7]: 30.3 µM

For `C[C@@H]1[C@H](O)[C@@H](C)/C=C/C=C/C=C/C=C/C=C/C=C/C=C/[C@H](O[C@@H]2O[C@H](C)[C@@H](O)[C@H](N)[C@@H]2O)C[C@@H]2O[C@](O)(C[C@@H](O)C[C@@H](O)[C@H](O)CC[C@@H](O)C[C@@H](O)CC(=O)O[C@H]1C)C[C@H](O)[C@H]2C(=O)O` [AMPHOTERICIN B], which IC50 [6] is on record?
Its IC50 is 0.07 µM.

Which MIC [1] does the source give for `CC[C@H]1OC(=O)[C@H](C)[C@@H](O[C@H]2C[C@@](C)(OC)[C@@H](O)[C@H](C)O2)[C@H](C)[C@@H](O[C@@H]2O[C@H](C)C[C@H](N(C)C)[C@H]2O)[C@](C)(OC)C[C@@H](C)C(=O)[C@H](C)[C@@H](O)[C@]1(C)O` [CLARITHROMYCIN] here?
The MIC was 0.01 µg/mL (≈ 0.0134 µM).

With `COc1cccc2c1C(=O)c1c(O)c3c(c(O)c1C2=O)C[C@@](O)(C(=O)CO)C[C@@H]3O[C@H]1C[C@H](N)[C@H](O)[C@H](C)O1` [DOXORUBICIN] as the compound, how does the CC50 at 48 h [7] read?
Its CC50 at 48 h is 0.8 µM.

Which results are given for `CN(C)[C@@H]1C(O)=C(C(N)=O)C(=O)[C@@]2(O)C(O)=C3C(=O)c4c(O)cccc4[C@@](C)(O)[C@H]3C[C@@H]12` [TETRACYCLINE]?
MIC [2]: 0.5 µg/mL (≈ 1.13 µM); MIC [3]: 2 µg/mL (≈ 4.5 µM); MIC [4]: 16 µg/mL (≈ 36 µM)
